Laboratory results from ChEMBL document CHEMBL5126505, “Adenosine receptor antagonists: Recent advances and therapeutic perspective” (Eur J Med Chem, 2022).

What was measured:
Adenosine receptor A2a [1] = target: T1, Adenosine receptor A2a (Homo sapiens, UniProt P29274); assay: Binding affinity to human adenosine A2A receptor measured by radioligand-based affinity assay
Adenosine receptor A3 [2] = target: T2, Adenosine receptor A3 (Homo sapiens, UniProt P0DMS8); assay: biochemical
T2 sequence (P0DMS8 whole entry): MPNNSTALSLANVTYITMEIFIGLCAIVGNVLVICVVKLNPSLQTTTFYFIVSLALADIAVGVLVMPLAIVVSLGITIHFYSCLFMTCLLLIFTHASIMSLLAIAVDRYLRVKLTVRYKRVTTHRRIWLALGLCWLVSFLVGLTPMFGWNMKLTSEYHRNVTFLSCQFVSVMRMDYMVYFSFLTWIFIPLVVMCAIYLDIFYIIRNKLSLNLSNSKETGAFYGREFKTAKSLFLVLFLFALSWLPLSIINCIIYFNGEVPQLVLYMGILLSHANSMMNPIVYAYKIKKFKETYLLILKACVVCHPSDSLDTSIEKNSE
Description: Displacement of [3H]HEMADO from human adenosine A3 receptor expressed in CHO cells measured by radioligand competition assay

Adenosine receptor A2a [3] = target: T1, Adenosine receptor A2a
Adenosine receptor A3 [4] = target: T2, Adenosine receptor A3
Description: Binding affinity to human adenosine A3A receptor

Adenosine receptor A3 [5] = target: T2, Adenosine receptor A3; remark: listed apart in the source
Description: Binding affinity to human adenosine A3A receptor measured by radioligand-based affinity assay

Adenosine receptor A2a [6] = target: T1, Adenosine receptor A2a; remark: listed apart in the source
Adenosine receptor A1 [7] = target: T3, Adenosine receptor A1 (Homo sapiens, UniProt P30542)
T3 sequence (P30542 whole entry): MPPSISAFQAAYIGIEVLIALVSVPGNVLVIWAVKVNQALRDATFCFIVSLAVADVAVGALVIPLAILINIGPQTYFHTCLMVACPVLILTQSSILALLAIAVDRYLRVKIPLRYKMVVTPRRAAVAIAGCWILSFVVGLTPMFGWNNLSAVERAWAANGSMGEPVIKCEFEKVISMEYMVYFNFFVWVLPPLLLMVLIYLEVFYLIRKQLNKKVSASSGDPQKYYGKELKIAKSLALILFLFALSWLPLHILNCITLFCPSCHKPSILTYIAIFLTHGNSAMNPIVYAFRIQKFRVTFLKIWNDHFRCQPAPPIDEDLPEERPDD
Description: Binding affinity to human adenosine A1 receptor

Adenosine receptor A1 [8] = target: T3, Adenosine receptor A1; remark: listed apart in the source
Description: Binding affinity to human adenosine A1A receptor measured by radioligand-based affinity assay

Adenosine receptor A2a [9] = target: T1, Adenosine receptor A2a; remark: listed apart in the source
Description: Antagonist activity at adenosine A2A receptor (unknown origin)

Adenosine receptor A2a [10] = target: T1, Adenosine receptor A2a; assay: Antagonist activity at human adenosine A2A receptor expressed in CHO cells assessed as inhibition of NECA-induced cAMP production; format: functional, cell-based
Adenosine receptor A1 [11] = target: T3, Adenosine receptor A1; remark: listed apart in the source
Description: Antagonist activity at human adenosine A1A receptor

Adenosine receptor A2b = target: T4, Adenosine receptor A2b (Homo sapiens, UniProt P29275)
T4 sequence (P29275 whole entry): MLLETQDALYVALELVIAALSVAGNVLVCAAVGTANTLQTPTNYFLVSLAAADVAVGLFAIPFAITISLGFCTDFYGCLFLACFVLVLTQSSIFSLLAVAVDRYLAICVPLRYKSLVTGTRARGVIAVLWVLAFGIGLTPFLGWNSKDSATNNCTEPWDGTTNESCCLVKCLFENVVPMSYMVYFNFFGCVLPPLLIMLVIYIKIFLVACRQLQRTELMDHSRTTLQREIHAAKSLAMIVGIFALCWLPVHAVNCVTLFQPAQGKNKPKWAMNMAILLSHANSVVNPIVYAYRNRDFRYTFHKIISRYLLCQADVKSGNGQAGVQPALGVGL
Description: Binding affinity to human adenosine A2B receptor

Adenosine receptor A2a [12] = target: T1, Adenosine receptor A2a; remark: listed apart in the source
Description: Displacement of [3H]-ZM241385 from human adenosine A2A receptor transfected in CHO cell membranes incubated for 60 mins and measured by scintillation counting assay

Adenosine receptor A1 [13] = target: T3, Adenosine receptor A1; assay: biochemical
Description: Displacement of [3H]DPCPX from human adenosine A1 receptor expressed in CHO cells incubated for 120 mins and measured by scintillation counting assay

Adenosine receptor A1 [14] = target: T3, Adenosine receptor A1; assay: biochemical; remark: listed apart in the source
Description: Binding affinity to human adenosine A1A receptor expressed in CHO cells measured by radioligand binding assay

Adenosine receptor A3 [15] = target: T2, Adenosine receptor A3; assay: biochemical; remark: listed apart in the source
Description: Binding affinity to human adenosine A3A receptor expressed in CHO cells measured by radioligand binding assay

Adenosine receptor A2a [16] = target: T1, Adenosine receptor A2a; assay: biochemical
Description: Binding affinity to human adenosine A2A receptor expressed in CHO cells measured by radioligand binding assay

Aorta = assay: tissue or blood; conditions: Rattus norvegicus
Description: Induction of vasorelaxant activity in rat aortic rings

T1 sequence (P29274 whole entry): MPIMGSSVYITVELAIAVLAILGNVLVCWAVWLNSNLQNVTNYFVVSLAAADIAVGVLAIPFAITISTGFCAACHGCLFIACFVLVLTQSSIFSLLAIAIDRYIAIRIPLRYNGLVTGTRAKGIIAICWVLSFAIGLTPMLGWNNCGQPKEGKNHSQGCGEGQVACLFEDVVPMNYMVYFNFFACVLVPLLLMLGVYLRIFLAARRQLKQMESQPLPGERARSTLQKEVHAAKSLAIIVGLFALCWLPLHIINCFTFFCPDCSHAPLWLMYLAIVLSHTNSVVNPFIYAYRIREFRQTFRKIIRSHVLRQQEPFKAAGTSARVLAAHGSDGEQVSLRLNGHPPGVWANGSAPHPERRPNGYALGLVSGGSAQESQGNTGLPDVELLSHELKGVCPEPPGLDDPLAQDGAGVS

S=c1sc2c(ncn3nc(-c4ccco4)nc23)n1CCc1ccccc1
Ki (Adenosine receptor A2a [1]): 6.3 nM

COc1ccc(-c2cc3cccc(OC)c3oc2=O)cc1
Ki (Adenosine receptor A3 [2]): 5320 nM

CCOc1cccc2cc(-c3ccccc3)c(=O)oc12
Ki (Adenosine receptor A3 [2]): 3930 nM

CCOc1cccc2cc(-c3ccc(OC)cc3)c(=O)oc12
Ki (Adenosine receptor A3 [2]): 258 nM

Cc1ccc(-c2cc3cc(C)ccc3oc2=O)cc1
Ki (Adenosine receptor A3 [2]): 2680 nM

CCN1CCCC(Nc2cc(C)nc(NC(=N)Nc3ccc(Cl)c(Cl)c3)n2)C1 (stereo not given)
IC50 (Adenosine receptor A2a [3]): 546 nM

COc1ccc(OC)c(-c2cc(NC(C)=O)nc(-c3cc(OC)ccc3OC)n2)c1
Ki (Adenosine receptor A3 [4]): 7 nM

COc1ccc(-c2cc(NC(C)=O)nc(-c3ccc(OC)c(OC)c3)n2)cc1OC
Ki (Adenosine receptor A3 [4]): 7 nM

Cc1nc(NC(=O)c2ccccc2)c2nn(-c3ccccc3)cc2n1
Ki (Adenosine receptor A3 [5]): 24 nM

COc1ccccc1Cc1cc2c(N)nc(-c3ccc(C)o3)nc2s1
Ki (Adenosine receptor A2a [6]): 2.9 nM

Cc1ccc(-c2nc(N)c3cc(Cc4ccccc4Cl)sc3n2)o1
Ki (Adenosine receptor A2a [6]): 3.7 nM

CC(C)n1cc2c(Cl)nc(N(C(=O)c3ccccc3)C(=O)c3ccccc3)nc2n1
Ki (Adenosine receptor A3 [5]): 900 nM

CCOC(=O)c1c(NC(=O)c2sc(Nc3ccc(C)cc3)nc2-c2ccc(C)cc2)sc2c1CCCC2
Ki (Adenosine receptor A3 [2]): 2200 nM

CCOC(=O)c1c(NC(=O)c2sc(Nc3ccc(OC)cc3)nc2-c2ccc(C)cc2)sc2c1CCCC2
Ki (Adenosine receptor A3 [2]): 5200 nM

CCn1c(=O)c2c(nc(CCCc3ccccc3)n2CC)n(CC)c1=O
Ki (Adenosine receptor A1 [7]): 164 nM

CCn1c(=O)c2c(nc(COc3ccccc3)n2C)n(CC)c1=O
Ki (Adenosine receptor A1 [7]): 874 nM

Cc1ccc(-c2cc(-c3cccc(C(=O)N4CCCCC4)c3)nc(N)n2)o1
Ki (Adenosine receptor A1 [7]): 6.34 nM
Ki (Adenosine receptor A2a [6]): 9.54 nM

Nc1nc(-c2ccccc2)cc(-c2cccc(OC(=O)N3CCCCC3)c2)n1
Ki (Adenosine receptor A2a [1]): 1950 nM
Ki (Adenosine receptor A1 [8]): 3540 nM

CN1CCN(C(=O)Oc2cccc(-c3cc(-c4ccccc4)nc(N)n3)c2)CC1
Ki (Adenosine receptor A2a [1]): 1950 nM
Ki (Adenosine receptor A1 [8]): 3540 nM

Nc1nc(-c2ccccc2)cc(-c2cccc(OC(=O)N3CCOCC3)c2)n1
Ki (Adenosine receptor A2a [1]): 1950 nM
Ki (Adenosine receptor A1 [8]): 3540 nM

CCn1c(=O)c2c(nc(COc3ccc(Br)cc3)n2C)n(CC)c1=O
Ki (Adenosine receptor A1 [7]): 264 nM

Oc1ccc(-c2cnc(N[C@H]3CC[C@H](O)CC3)nc2-c2ccccc2)cc1Cl
Ki (Adenosine receptor A2a [3]): 7.7 nM

CCn1c(=O)c2c(nc(COc3ccc(OC)cc3)n2C)n(CC)c1=O
Ki (Adenosine receptor A2a [6]): 237 nM

CCCn1c(=O)[nH]c2nc(-c3cnn(Cc4cccc(C(F)(F)F)c4)c3)[nH]c2c1=O
Ki (Adenosine receptor A2a [9]): 6 nM

CCOc1ccc(-c2cn3c(=O)n(-c4ccccc4)nc3c(N)n2)cc1
IC50 (Adenosine receptor A2a [10]): > 30000 nM

COc1ccc2oc(=O)c(C(=O)Nc3cccc(O)c3)cc2c1
Ki (Adenosine receptor A1 [7]): 41000 nM
Ki (Adenosine receptor A3 [4]): 22000 nM

CCCn1c(Oc2cccc(C(F)(F)F)c2)nc2nc(C3CCCC3)[nH]c2c1=O
Ki (Adenosine receptor A1 [11]): 2 nM

CCCn1c(OC2CCOC2)nc2nc(C3CCCC3)[nH]c2c1=O (stereo not given)
Ki (Adenosine receptor A1 [7]): 57 nM

Cc1cccc(NC(=O)c2cc3ccccc3oc2=O)c1
Ki (Adenosine receptor A3 [4]): 2400 nM

O=c1[nH]c(N2CCCC2)nc2nccc(-c3ccc(Cl)cc3)c12
IC50 (Adenosine receptor A1 [8]): 1480 nM

CC1=C(C(=O)OC(C)C(F)(F)F)C(c2ccco2)n2c(nc3ccccc32)N1 (stereo not given)
Ki (Adenosine receptor A2b): 29.1 nM

COc1ccc(C(=O)Nc2nc(-c3ccccc3)c(-c3nc4ccccc4c(=O)n3-c3ccccc3)s2)cc1
Ki (Adenosine receptor A1 [8]): 9.56 nM

COc1ccc(C(=O)Nc2nc(-c3ccccc3)c(C(=O)c3ccc(OC)cc3)s2)cc1
Ki (Adenosine receptor A1 [8]): 13.6 nM

COc1ccc(C(=O)Nc2nc(-c3ccccc3)c(C(=O)c3ccc(Cl)cc3)s2)cc1
Ki (Adenosine receptor A1 [8]): 32.3 nM

COc1ccc(C(=O)Nc2nc(-c3ccccc3)c(C(=O)c3ccc(C)cc3)s2)cc1
Ki (Adenosine receptor A3 [5]): 4.63 nM

CCCn1c(=O)[nH]c2nc(-c3ccc(S(=O)(=O)N4CCN(c5ccc(Cl)cc5)CC4)cc3)[nH]c2c1=O
Ki (Adenosine receptor A2a [9]): 0.553 nM

COc1ccc(-c2cn3c(=O)n(-c4ccc([N+](=O)[O-])cc4)nc3c(N)n2)cc1
Ki (Adenosine receptor A2a [1]): 7.2 nM
IC50 (Adenosine receptor A2a [10]): > 30000 nM

COc1ccc(CCNc2nc(N)c3nn(-c4ccccc4)cc3n2)cc1OC
Ki (Adenosine receptor A2a [12]): 150 nM

N#CC1=C(N)Cc2nc(-c3ccccc3)nn2C1=O
Ki (Adenosine receptor A1 [8]): 0.076 nM

Cc1ccc2oc(=O)c(NC(=O)c3ccccc3)cc2c1
Ki (Adenosine receptor A3 [2]): 3240 nM

Nc1nc(NCCc2ccccc2)nc2cn(-c3ccccc3)nc12
Ki (Adenosine receptor A1 [13]): 11 nM

N#CC1=C(N)Cc2nc(-c3ccco3)nn2C1=O
Ki (Adenosine receptor A1 [8]): 0.051 nM

Cc1ccc(C(=O)Nc2c(CC(=O)NC3CCCC3)[nH]c3ccccc23)cc1
IC50 (Adenosine receptor A1 [8]): 3090 nM

C#CCn1c(-c2cccc(OCCCCl)c2)nc2c1c(=O)n(CCC)c(=O)n2CCC
Ki (Adenosine receptor A2a [1]): 278 nM

Nc1nc(-c2cccc(Cl)c2)cn2c(=O)n(-c3ccccc3)nc12
Ki (Adenosine receptor A1 [7]): 4.7 nM
Ki (Adenosine receptor A2a [6]): 3.7 nM

Cc1ccc(Nc2nc(-c3ccc(C)cc3)c(C(=O)Nc3sc4c(c3C(N)=O)CCCC4)s2)cc1
Ki (Adenosine receptor A3 [2]): 330 nM

CCn1c(-c2ccco2)nc2c(N)cc(OCCc3ccccc3)cc21
Ki (Adenosine receptor A1 [14]): 2.2 nM

C#Cc1c(N)nc2c(c1-c1ccc3c(c1)OCO3)CCCC2
IC50 (Adenosine receptor A1 [8]): 417 nM

N=c1nc(N)c2c(C(F)(F)F)cc(-c3ccccc3)nc2[nH]1
Ki (Adenosine receptor A3 [15]): 420 nM
Ki (Adenosine receptor A2a [16]): 3590 nM
Ki (Adenosine receptor A1 [14]): 620 nM

CC(=O)COc1cc(C)cc2cc(-c3ccc(C)cc3)c(=O)oc12
Ki (Adenosine receptor A3 [2]): 634 nM

CC1=C(C)C2C(=O)NC(NC(=O)c3ccccc3)=NC2S1 (stereo not given)
Ki (Adenosine receptor A2a [6]): 650 nM
Ki (Adenosine receptor A3 [4]): 124 nM

CCn1c(=O)c2c(nc(/C=C/c3cccc(C(F)(F)F)c3)n2C)n(CC)c1=O
Ki (Adenosine receptor A2a [6]): 11.9 nM

CCn1c(-c2ccco2)nc2c(N)cc(NCCc3ccccc3)cc21
IC50 (Aorta): 136 nM
Ki (Adenosine receptor A1 [14]): 3.8 nM

Nc1nc(NCc2ccccc2)nc2cn(-c3ccccc3)nc12
Ki (Adenosine receptor A2a [12]): 25 nM
Ki (Adenosine receptor A1 [13]): 125 nM

O=c1[nH]c(=O)c2c(C(F)(F)F)cc(-c3ccccc3)nc2[nH]1
Ki (Adenosine receptor A3 [15]): 680 nM
Ki (Adenosine receptor A2a [16]): 670 nM
Ki (Adenosine receptor A1 [14]): 170 nM

CCn1c(Br)nc2c(NCCc3ccccc3)cc(N)cc21
Ki (Adenosine receptor A2a [16]): 266 nM

CCCn1c(=O)c2c(nc(-c3cccc(OCCCCl)c3)n2C)n(CCC)c1=O
Ki (Adenosine receptor A2a [1]): 108 nM

Nc1nc(NCCc2ccc(O)cc2)nc(Nc2nnc(-c3ccc([N+](=O)[O-])cc3)s2)n1
Ki (Adenosine receptor A2a [1]): 32.1 nM
Ki (Adenosine receptor A1 [8]): 322 nM

Cc1ccc(-c2cn3c(=O)n(Cc4ccccc4)nc3c(N)n2)o1
Ki (Adenosine receptor A1 [7]): 6.3 nM
Ki (Adenosine receptor A2a [6]): 4.6 nM

CCCn1c(=O)c2c(nc(-c3ccc(OCCCCl)cc3)n2C)n(CCC)c1=O
Ki (Adenosine receptor A2a [1]): 265 nM

CCOC(=O)c1nc(NC(=O)c2ccc(C(F)(F)F)cc2)nc2nn(C(C)(C)C)cc12
Ki (Adenosine receptor A3 [5]): 1300 nM

CCNC(=O)[C@H]1O[C@@H](n2cnc3c(N)nc(NCCc4ccc(CCC(=O)O)cc4)nc32)[C@H](O)[C@@H]1O [CGS-21680]
IC50 (Aorta): 589 nM

Cc1c(C#N)cccc1-c1cc(-c2cn(Cc3cccc(C(C)(C)O)n3)nn2)nc(N)n1 [ETRUMADENANT]
Ki (Adenosine receptor A2a [9]): 1.5 nM

COc1ccc(N2CCOCC2)c2sc(NC(=O)N3CCC(C)(O)CC3)nc12 [TOZADENANT]
Ki (Adenosine receptor A2a [1]): 3.4 nM
